This note sets out measurements from patent US12150972B1, “Egg white protein anti-inflammatory peptide and application thereof” (Hangzhou BIBAU Biotechnology Co., Ltd., priority 2023, dated 2024).

Structures are written as SMILES. Peptide text beside a SMILES is read from it.

The subject of data set [1] is IL-6 secretion in RAW264.7 cells induced by LPS. The experiment in a line: IL-6 secretion in LPS-induced RAW264.7 cells (ELISA). In kind it is cell-based, mouse. As to conditions: RAW264.7 induced by LPS; sample 500 μg/mL. The procedure:
(§1) The three groups were cultured in the incubator for 24 hours, and the supernatants were collected. According to the instructions of the ELISA kit, the absorbance value at 450 nm was measured and the secretion amounts of inflammatory factors TNF-α, IL-6 and IL-1β were calculated. The inhibition ratios of the three inflammatory factors were calculated by formula (3).
(§2) In the formula, C refers to the inhibition ratio (%) of inflammatory factors, Co is the secretion amount of inflammatory factors in the blank group, C1 is the secretion amount of inflammatory factors in the LPS group, and C2 is the secretion amount of inflammatory factors in the sample group.

For data set [2], the system named is NO production in RAW264.7 cells induced by LPS. In words: NO production amount in LPS-induced RAW264.7 cells (Griess method). In kind it is cell-based, mouse. The settings on record: for NO production amount: RAW264.7 induced by LPS 1 μg/mL. The protocol: The NO production amount in the cell was measured by Griess method. The grouping, treatment and culture methods were the same as 1.2. After 24 hours of culture, the supernatant was collected and the NO production amount was measured using a NO detection kit. 50 μL of cell supernatant, 50 μL of Griess I reagent, and 50 μL of Griess II reagent were mixed, and stood for 5 minutes, and then the absorbance value at 540 nm was measured. According to the instructions of the NO kit, the NO production amount in each sample was calculated, and the inhibition ratio of NO production amount is calculated by formula (2).
In the formula, B refers to the NO inhibition ratio (%), B0 is the NO production amount of the blank group, B1 is the NO production amount of the LPS group, and B2 is the NO production amount of the sample group.
On the technique in general: Nitrite, measured by Griess reagent, commonly stands in for NO production.

Data set [3] relates to TNF-α secretion in RAW264.7 cells induced by LPS. In words: TNF-α secretion in LPS-induced RAW264.7 cells (ELISA). In kind it is cell-based, mouse. The settings on record: RAW264.7 induced by LPS; sample 500 μg/mL. The procedure:
as §1, §2
(In general: An ELISA detects its analyte on a solid surface through an enzyme-linked reagent.)

The next data set in a line: in vitro. The settings on record: mouse, RAW264.7 macrophage cells induced by LPS, cell viability.
The test system of data set [4] is IL-1β secretion in RAW264.7 cells induced by LPS. The experiment in a line: IL-1β secretion in LPS-induced RAW264.7 cells (ELISA). It counts as cell-based, mouse. The settings on record: RAW264.7 induced by LPS; sample 500 μg/mL. The procedure: as §1, §2

Experimental for in vitro: The cell viability of RAW264.7 cells was determined by MTT method. RAW264.7 cells in the logarithmic growth phase were seeded in a 96-well plate at 100 μL/well with a density of 4×10^4/well. The outermost layer of the 96-well plate was sealed by PBS solution, and the 96-well plate was transferred to an incubator for culturing for 12 to 24 hours. The incubator temperature was 37° C. and the CO2 concentration was 5%. After the cells adhered to the wall, the waste supernatant was extracted from the 96-well plate. A blank group (added with 100 μL of culture medium), an LPS group (added with 100 μL of LPS with a final mass concentration of 1 μg/mL), and a sample group (added with 100 μL of peptides with different or the same mass concentration and added with LPS with a final mass concentration of 1 μg/mL after 2 hours of reaction) were set, and each group was performed in triplicate. After culturing for 24 hours, 20 μL of MTT solution with a concentration of 5 mg/mL was added into each well. After continuing to culture in the incubator for 4 hours, 100 μL of dimethyl sulfoxide (DMSO) was added and shaken gently for 10 min. The absorbance value at 570 nm was measured with a microplate reader, and the cell viability (%) was calculated according to the formula (1).
In the formula (1), V refers to the cell viability (%), A1 is the absorbance value of the blank group at 570 nm, and A2 is the absorbance value of the sample group at 570 nm.

As a reminder, the viability is a read-out of living cells in per cent, often relative to untreated cells. Regarding `N[C@@H](Cc1ccccc1)C(=O)NCC(=O)N1CCC[C@H]1C(=O)N[C@@H](Cc1c[nH]cn1)C(=O)O` [FGPH, Phe-Gly-Pro-His] (H-FGPH-OH), in data set [1], the “inhibition ratio of IL-6 secretion” value came out at 41.72±1.83%. Also, the NO production amount in data set [2] (sample 125 μg/mL) was found to be 18.07 ± 0.31 µM. In data set [2] (sample 250 μg/mL), this compound registered an NO production amount of 16.23 ± 0.31 µM. The compound also yielded an NO production amount in data set [2] (sample 500 μg/mL) of 13.82 ± 0.31 µM. Besides, in data set [2] (RAW264.7 induced by LPS, sample 500 μg/mL), the “inhibition ratio of NO production amount” value came out at 64.41±0.47%. The “inhibition ratio of TNF-α secretion” value in data set [3] was 28.07±2.10%. In the data set “in vitro”, the viability at 24 h, 125 µg/mL is > 109%; the viability at 24 h, 250 µg/mL is > 109%; the viability at 24 h, 500 µg/mL is > 109%; the viability at 24 h, 1000 µg/mL is < 97%. In data set [4], the “inhibition ratio of IL-1β secretion” value amounted to 52.43±2.29%.
